In patent publication EP1203585A1, “ANTI-ISCHEMIC AGENT” (Zakrytoe Aktsionernoe Obschestvo " Asgl-Issledovatelskie …, priority 1999, dated 2001):

Experiments:
[1] = tested on: dogs; experiment: chronic toxicity; assay type: in vivo; conditions: 28 dogs, perorally in doses 50, 250 and 500 mg/kg
[2] = tested on: rats; experiment: chronic toxicity; assay type: in vivo; conditions: 160 rats, perorally in doses 50, 250 and 500 mg/kg
[3] = tested on: rabbits; experiment: toxicity study, blood and biochemical parameters at 50 and 100 mg/kg; assay type: in vivo
[4] = acute toxicity (LD50); parameters: species or system rats; conditions: rat, in vivo
Experimental: Acute toxicity (LD50) has been studied in rats, the substance being administered intraperitoneally and perorally. […] LD50 of the substance administered perorally to rats (males and females) - 2464,8 mg/kg, of the pharmaceutical form - 3185,8 mg/kg.

[5] = tested on: rats; experiment: toxicity study, blood and biochemical parameters at 50 and 100 mg/kg; assay type: in vivo
[6] = tested on: rats with experimental myocardial infarction; experiment: experimental myocardial infarction after occlusion of the descending branch of the left coronary artery (LAD), morphometry of ischemia and injury zones; assay type: in vivo; conditions: for Area of the injury zone: ischemia zone plus necrosis zone; for Area of the injury zone / Area of the necrosis zone / Ratio: necrosis zone /myocard / Ratio: necrosis/ ischemia / Area of the myocardial zone / Area of the ischemia zone / Ratio: ischemia zone/ myocard: third day, PhP 50 mg/kg intraperitoneally 30 minutes before LAD occlusion; for Area of the injury zone / Area of the necrosis zone / Ratio: necrosis zone /myocard / Ratio: necrosis/ ischemia / Area of the ischemia zone / Ratio: ischemia zone/ myocard: Obzidan 0.5 mg/kg; for Area of the injury zone / Area of the ischemia zone / Ratio: ischemia zone/ myocard: * p<0.05 vs physiological solution; for Area of the myocardial zone: Obzidan 0.5 mg/kg 30 minutes before
Experimental: The study on 4-phenyl-2-pyrrolidinone-1-acetic acid amide anti-ischemic activity has been carried out in model of experimental myocardial infarction caused by the experimental myocardial infarction after the descending branch of the left coronary artery (LAD) occlusion in rats. 4-phenyl-2-pyrrolidinone-1-acetic acid amide was administered intraperitoneally in dose 50 mg/kg 30 minutes before the LAD-occlusion. Anti-ischemic activity of the substance was assessed on the third day after its administration by estimation of the area of necrosis, the area of ischemia and the total myocardial necrosis zone (area of necrosis plus area of ischemia). Ischemia zone and myocardial injury zones were assessed by morphometry methods. Results obtained in the experimental animals' groups exposed to the substance were compared with results obtained in animals, exposed to Obzidan and physiological solutionin (PhS) in dose 0.5 mg/kg, administered 30 minutes before the LAD occlusion.

[7] = tested on: rats; experiment: hemodynamics parameters estimated by direct method; assay type: in vivo
Experimental: In the other study parameters of hemodynamics in rats exposed to PhP have been estimated (minute cardiac supply, cardiac index, cardiac output, heart rate). Hemodynamics parameters have been estimated by direct method on the fourth day after PhP administration in dose 50 mg/kg.

[8] = PhP 50 mg/kg intraperitoneally, compared with physiological solution
[9] = 4th day after PhP administration, dose 50 mg/kg

For `NC(=O)CN1CC(c2ccccc2)CC1=O` (stereo not drawn) [PhP, 4-phenyl-2-pyrrolidinone-1-acetic acid amide], the “changes of peripheral blood and heart, kidney and liver functions” value [1] was “absence of significant changes”, the “changes of peripheral blood and heart, kidney and liver functions” value [2] was “absence of significant changes” and the “parameters of the peripheral blood, composition of electrolytes and other biochemical parameters” value [3] was “does not influence”. It also gave an LD50 ([4]; ip, rats, females, administered intraperitoneally) of 522 mg/kg, an LD50 ([4]; ip, rats, males, administered intraperitoneally) of 538 mg/kg and an LD50 ([4]; po, rats (males and females), administered perorally) of 2460 mg/kg. The “parameters of the peripheral blood, composition of electrolytes and other biochemical parameters” value [5] was “does not influence”, the Anti-ischemic effect ([6]; PhP 50 mg/kg compared with Obzidan 0.5 mg/kg) was “exceeded the one of Obzidan” and the “area of ischemia zone (result in words)” value [6, 8] was “statistically significantly reduced”. The “area of the total injury zone (ischemia zone plus necrosis zone) (result in words)” value [6, 8] was “statistically significantly reduced”, the “area of myocardial necrosis (result in words)” value ([6]; PhP 50 mg/kg intraperitoneally, not statistically significant) was “nearly twice reduced” and the “Area of the injury zone” value [6] was 182,53 MM^2. The “Area of the necrosis zone” value [6] was 19,21 mm^2, the “Ratio: necrosis zone /myocard” value [6] was 0,039± and the “Ratio: necrosis/ ischemia” value [6] was 0,113±. For the same compound, the “Area of the myocardial zone” value [6] was 492,55 mm^2, the “Area of the ischemia zone” value [6] was 163,33 mm^2 and the “Ratio: ischemia zone/ myocard” value [6] was 0,332±. For the same compound, the Cardiac index [7, 9] was 133.8 ±9.8 % in comparison with source data before PhP administration, the Cardiac output [7, 9] was 161.8±12.7 % in comparison with source data before PhP administration and the Heart rate [7, 9] was 115.4±3.1 % in comparison with source data before PhP administration. The Minute cardiac supply [7, 9] was 110.8±3.2 % in comparison with source data before PhP administration and the inotrop effect ([7]; PhP 50 mg/kg) was “not followed by any negative inotrop effect”.

For `CC(C)NCC(O)COc1cccc2ccccc12` (stereo not drawn) [Obzidan, reference compound], the “Area of the injury zone” value [6] was 203,68 MM^2, the “Area of the necrosis zone” value [6] was 28,48 mm^2 and the “Ratio: necrosis zone /myocard” value [6] was 0,059±. The “Ratio: necrosis/ ischemia” value [6] was 0,163±, the “Area of the myocardial zone” value [6] was 481,13 mm^2 and the “Area of the ischemia zone” value [6] was 175,21 mm^2. For the same compound, the “Ratio: ischemia zone/ myocard” value [6] was 0,365±.
